Data on 20 compounds can be found in patent publication US5296597A, “Amide derivatives of Partricin A & Partricin B” (SPA Societa' Prodotti Antibiotici S.P.A., priority 1989, dated 1994).

In brackets after ≈: the same amount, converted by molar mass. Where two headings read alike, the source gives them in different places.

One series concerns rat erythrocytes. Kind of series: hemolytic power on rat erythrocytes. It counts as cell-based. The conditions noted are these: for hemolytic activity, times less than unreacted partricins: relative to unreacted partricins; for EC (concentration that causes hemoglobin liberation of 50% of the total amount): rat erythrocytes, 2% suspension in BSA Ringer, 1 hour at 36, average of 2-5 experiments. The method, then:
A further important evaluation parameter was the helomytic power: rat erytrocytes were suspended at a 2% concentration in Ringer solution containing 0.2% of bovine serum albumin, fraction V (BSA) and incubated for 1 hour at 36° C. in the presence of various amounts of the amides being investigated.

The test system of another series is Candida albicans. Kind of series: antimycotic activity, minimum inhibitory concentration (MIC) on Candida albicans, liquid and solid medium. Type of series: cell-based. The conditions noted are these: candida albicans n. 37, 24 hours, average of 2-5 experiments. The method, then:
(b) Sabouraud fluid medium, 24 hours at
(c) Sabouraud fluid medium + agar, 24 hours at […]

For the next series, the system named is Saccharomyces cerevisiae. Description: growth inhibition of Saccharomyces cerevisiae culture (turbidimetric). Type of series: cell-based. The settings on record: S. cerevisiae n. 167; PYG culture medium, 6 hours at 36; average of 2-5 experiments.
A further series has as its system Trichomonas vaginalis. Kind of series: antiprotozoal activity, MIC on Trichomonas vaginalis. Type of series: cell-based. The settings on record: T. vaginalis n. 6; CPLM culture medium, 72 hours; average of 2-5 experiments.
For series [1] the following is noted: background statement, in words; cited from earlier work.
The conditions of series [2]: background statement, in words; cited from earlier work. The source holds these as a separate data set.
The test system of series [3] is yeasts, such as Candida albicans. The settings on record: background statement, in words; cited from earlier work.
A further series in a line: water solubility and pH. It counts as physicochemical.
[4] abbreviates: Sabouraud fluid medium + agar (solid).

2-dimethylaminoethyl amide: the “hemolytic activity, times less than unreacted partricins” value (“hemolytic activity” below) in the series with rat erythrocytes is 25-80 times less.

For the compound 3-dimethylaminopropyl amide, the “hemolytic activity” value in the series with rat erythrocytes is on record as 25-80 times less.

Take `CC1/C=C/C=C/C=C/C=C/C=C/C=C/C=C/C(O[C@H]2O[C@@H](C)[C@H](O)[C@@H](N)[C@H]2O)CC2OC(O)(CC(O)CC(O)CC(O)CC(O)CC(=O)CC(O)CC(=O)OC1C(C)CCC(O)CC(=O)c1ccc(N)cc1)CC(O)C2C(=O)O` (stereo partly drawn) [Partricin B (P.B), reference compound]: the values for the MIC in the series on Candida albicans (setting [4]), against Candida albicans (Sabouraud fluid medium) and in the series on Trichomonas vaginalis were 40 ng/mL, 40 ng/mL (≈ 0.0359 µM) and 250 ng/mL (≈ 0.225 µM), respectively. For the same compound, in the series on Saccharomyces cerevisiae, the IC50 is 5 ng/mL (≈ 0.00449 µM).

On to `COC(=O)C1C(O)CC2(O)CC(O)CC(O)C(O)CCC(O)CC(O)CC(=O)OC(C)C(C)C(O)C(C)C=CC=CC=CC=CC=CC=CC=CC(OC3OC(C)C(O)C(N)C3O)CC1O2` (stereo not drawn) [amphotericin B methyl ester], for which the toxicity result in series [1] is reported as “severe neurotoxic effects”.

As for “Partricin 3-dimethylaminopropyl amide [P. 3-dimethyl-aminopropyl amide]”, the MIC in the series with Candida albicans (setting [4]) was found to be 16 ng/mL; against Candida albicans (Sabouraud fluid medium), 10 ng/mL; with Trichomonas vaginalis, 500 ng/mL. Besides, in the series on Saccharomyces cerevisiae, the concentration for half-maximal inhibition (IC50) stood at 1 ng/mL. Besides, in the series with rat erythrocytes, the “EC (concentration that causes hemoglobin liberation of 50% of the total amount)” value is 17 µg/mL.

With “Partricin A 3-dimethylaminopropyl amide [P.A 3-dimethyl-aminopropyl amide]”, the MIC in the series with Candida albicans (setting [4]) was found to be 8 ng/mL; in the series on Candida albicans (Sabouraud fluid medium) it was 3 ng/mL; against Trichomonas vaginalis, 500 ng/mL. In the series with Saccharomyces cerevisiae, this compound yielded an IC50 of 0.5 ng/mL. The “EC (concentration that causes hemoglobin liberation of 50% of the total amount)” value with rat erythrocytes is 20 µg/mL.

For the compound “Partricin A N'-methyl-piperazide [P.A N'-methyl-piperazide]”, the results for the minimal inhibitory concentration (MIC) with Candida albicans (setting [4]), in the series with Candida albicans (Sabouraud fluid medium) and with Trichomonas vaginalis were 4 ng/mL, 1 ng/mL and 500 ng/mL, respectively. Besides, the IC50 in the series on Saccharomyces cerevisiae was found to be 0.4 ng/mL.

For the compound “Partricin A allyl amide [P.A allyl amide]”, the results for the MIC with Candida albicans (setting [4]), with Candida albicans (Sabouraud fluid medium) and against Trichomonas vaginalis were 10 ng/mL, 6 ng/mL and 250 ng/mL, respectively. The IC50 in the series with Saccharomyces cerevisiae is 0.8 ng/mL.

Regarding “Partricin A ethyl amide [P.A ethyl amide]”, the results for the MIC in the series with Candida albicans (setting [4]), against Candida albicans (Sabouraud fluid medium) and against Trichomonas vaginalis were 10 ng/mL, 9 ng/mL and 500 ng/mL, respectively. The IC50 in the series on Saccharomyces cerevisiae is 1 ng/mL.

Turning to “Partricin A n-pentyl amide [P.A n-penthyl amide]”, the MIC turned out to be 80 ng/mL in the series with Candida albicans (setting [4]), 20 ng/mL with Candida albicans (Sabouraud fluid medium) and 2000 ng/mL in the series with Trichomonas vaginalis. The IC50 in the series on Saccharomyces cerevisiae came to 3 ng/mL.

In the case of “Partricin A n-propyl amide [P.A n-propyl amide]”, the minimal inhibitory concentration (MIC) is 16 ng/mL in the series on Candida albicans (setting [4]), 8 ng/mL in the series with Candida albicans (Sabouraud fluid medium) and 500 ng/mL in the series on Trichomonas vaginalis. In the series on Saccharomyces cerevisiae, this compound returned an IC50 of 1 ng/mL.

In the case of “Partricin B 2-dimethylaminoethyl amide [P.B 2-dimethyl-aminoethyl-amide]”, the MIC is 10 ng/mL in the series on Candida albicans (setting [4]), 3 ng/mL against Candida albicans (Sabouraud fluid medium) and 500 ng/mL against Trichomonas vaginalis. In the series on Saccharomyces cerevisiae, this compound showed a 50% inhibitory concentration (IC50) of 1 ng/mL.

For the compound “Partricin B methyl amide [P.B methyl amide]”, the minimal inhibitory concentration (MIC) in the series with Candida albicans (setting [4]) turned out to be 8 ng/mL; in the series on Candida albicans (Sabouraud fluid medium), 7 ng/mL; in the series on Trichomonas vaginalis it was 250 ng/mL. The compound further registered a concentration for half-maximal inhibition (IC50) in the series with Saccharomyces cerevisiae of 1 ng/mL.

For the compound Partricin methyl amide [P. methy amide], the MIC in the series with Candida albicans (setting [4]) stood at 7 ng/mL; in the series with Candida albicans (Sabouraud fluid medium), 5 ng/mL; with Trichomonas vaginalis, 250 ng/mL. The same compound registered an IC50 with Saccharomyces cerevisiae of 1 ng/mL. The “EC (concentration that causes hemoglobin liberation of 50% of the total amount)” value with rat erythrocytes turned out to be 7.5 µg/mL.

“Partricin n-dodecyl amide [P. n-dodecyl amide]”: the MIC is 800 ng/mL in the series on Candida albicans (setting [4]), 450 ng/mL against Candida albicans (Sabouraud fluid medium) and greater than 10000 ng/mL against Trichomonas vaginalis. Moreover, the IC50 in the series with Saccharomyces cerevisiae came to 50 ng/mL. In the series on rat erythrocytes, the “EC (concentration that causes hemoglobin liberation of 50% of the total amount)” value was greater than 32 µg/mL.

With mepartricin, the water solubility result in series [2] is given as “insufficient water solubility”. The antimycotic activity result in series [3] is “increased antimycotic activity”. Besides, in series [1], the action selectivity result was “greater action selectivity” and the toxicity entry is given as “reduced toxicity, but still exhibits marked toxic effects”.

In the case of methyl amide, the “hemolytic activity” value in the series on rat erythrocytes is listed as 25-80 times less.

As for “partricin A 2-dimethylaminoethyl amide diaspartate”, the water solubility result in the series “water solubility and pH” (in words) is “water-soluble”. For the same compound, the “pH (reaction of the salt)” value in the series “water solubility and pH” (slightly acidic reaction) is roughly 5.

For “partricin A 2-dimethylaminoethylamide [P.A 2-dimethyl-aminoethyl amide]”, the MIC in the series with Candida albicans (setting [4]) turned out to be 8 ng/mL; against Candida albicans (Sabouraud fluid medium), 2 ng/mL; against Trichomonas vaginalis, 500 ng/mL. The same compound displayed an IC50 in the series on Saccharomyces cerevisiae of 0.4 ng/mL. In addition, in the series with rat erythrocytes, the “EC (concentration that causes hemoglobin liberation of 50% of the total amount)” value is 25 µg/mL.

In the case of “partricin A methyl amide [P.A methyl amide]”, the minimal inhibitory concentration (MIC) was 8 ng/mL in the series with Candida albicans (setting [4]), 5 ng/mL with Candida albicans (Sabouraud fluid medium) and 250 ng/mL in the series on Trichomonas vaginalis. The compound also yielded an IC50 in the series on Saccharomyces cerevisiae of 0.7 ng/mL. Moreover, the “EC (concentration that causes hemoglobin liberation of 50% of the total amount)” value in the series with rat erythrocytes worked out at 8 µg/mL.
